# From patent publication US7176316B2, “Amino-piperidine derivatives” (Hoffmann-La Roche Inc., priority 2003, dated 2007)
# Like-named read-outs stand apart in the source and are kept apart here.
# Target: T1, hGlyT-1b (Homo sapiens, UniProt P48067)
# T1 sequence (P48067 1-652 isoform P48067-3): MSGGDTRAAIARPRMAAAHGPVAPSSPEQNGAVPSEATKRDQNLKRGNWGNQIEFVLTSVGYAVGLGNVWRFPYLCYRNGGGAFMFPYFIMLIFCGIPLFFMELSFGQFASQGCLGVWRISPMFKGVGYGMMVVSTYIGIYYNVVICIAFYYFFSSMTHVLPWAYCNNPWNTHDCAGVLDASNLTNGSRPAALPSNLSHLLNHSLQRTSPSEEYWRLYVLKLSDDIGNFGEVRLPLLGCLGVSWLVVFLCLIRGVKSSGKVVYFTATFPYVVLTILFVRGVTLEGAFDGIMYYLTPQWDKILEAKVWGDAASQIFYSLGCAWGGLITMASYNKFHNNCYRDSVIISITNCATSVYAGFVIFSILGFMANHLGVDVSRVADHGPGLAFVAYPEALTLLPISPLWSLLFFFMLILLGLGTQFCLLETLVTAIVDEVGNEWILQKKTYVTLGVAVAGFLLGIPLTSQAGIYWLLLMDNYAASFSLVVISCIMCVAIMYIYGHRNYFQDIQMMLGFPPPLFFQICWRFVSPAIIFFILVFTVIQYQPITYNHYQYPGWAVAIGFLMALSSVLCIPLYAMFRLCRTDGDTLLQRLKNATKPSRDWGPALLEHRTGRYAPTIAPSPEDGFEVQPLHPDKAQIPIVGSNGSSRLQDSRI
# Assay: Glycine uptake inhibition assay (hGlyT-1b), [3H]-glycine uptake in transfected CHO cells
Molecule,IC50 [µM],IC50 (read-out: IC50 (μM) at GlyT-1) [µM]
"COc1ccc(S(=O)(=O)N(c2ccccc2)C2CCN([C@@H]3CCCC[C@@H]3c3ccccc3)CC2)cc1 (racemic) [Example 11, (+/−)-4-Methoxy-N-phenyl-N-[cis-1-(2-phenyl-cyclohexyl)-piperidin-4-yl]-benzenesulfonamide]",0.056,–
"COc1ccc(S(=O)(=O)N(c2ccc(Cl)cc2)C2CCN([C@@H]3CCCC[C@@]3(O)c3ccccc3)CC2)cc1 (racemic) [Example 102, (+/−)-N-(4-Chloro-phenyl)-N-[cis-1-(2-Hydroxy-2-phenyl-cyclohexyl)-piperidin-4-yl]-4-methoxy-benzenesulfonamide]",0.092,–
"COc1ccc(S(=O)(=O)N(c2ccc(Cl)cc2)C2CCN([C@@H]3CCCC[C@@]3(O)c3cccnc3)CC2)cc1 (racemic) [Example 105, (+/−)-N-(4-Chloro-phenyl)-N-[cis-1-(2-hydroxy-2-pyridin-3-yl-cyclohexyl)-piperidin-4-yl]-4-methoxy-benzenesulfonamide]",0.084,–
"COc1ccc(S(=O)(=O)N(c2cccc(OC)c2)C2CCN([C@@H]3CCCC[C@@]3(O)c3ccccc3)CC2)cc1 (racemic) [Example 123, (+/−)-N-[cis-1-(2-Hydroxy-2-phenyl-cyclohexyl)-piperidin-4-yl]-4-methoxy-N-(3-methoxy-phenyl)-benzenesulfonamide]",0.095,–
"COc1ccc(S(=O)(=O)N(c2ccc(F)cc2)C2CCN([C@@H]3CCCC[C@@]3(O)c3ccccc3)CC2)cc1 (racemic) [Example 112, (+/−)-N-(4-Fluoro-phenyl)-N-[cis-1-(2-Hydroxy-2-phenyl-cyclohexyl)-piperidin-4-yl]-4-methoxy-benzenesulfonamide]",0.061,–
"COc1ccc(S(=O)(=O)N(c2cccc(OC)c2)C2CCN([C@@H]3CCCC[C@@]3(O)c3ccc(F)cc3)CC2)cc1 (racemic) [Example 125, (+/−)-N-{cis-1-[2-(4-Fluoro-phenyl)-2-hydroxy-cyclohexyl]-piperidin-4-yl}-4-methoxy-N-(3-methoxy-phenyl)-benzenesulfonamide]",0.096,–
"COc1ccc(S(=O)(=O)N(c2ccc(F)cc2)C2CCN([C@@H]3CCCC[C@@]3(O)c3ccc(F)cc3)CC2)cc1 (racemic) [Example 114, (+/−)-N-(4-Fluoro-phenyl)-N-{cis-1-[2-(4-fluoro-phenyl)-2-hydroxy-cyclohexyl]-piperidin-4-yl}-4-methoxy-benzenesulfonamide]",0.066,–
"COc1ccc(S(=O)(=O)N(c2ccccc2)C2CCN([C@@H]3CCCC[C@]3(O)c3ccccc3)CC2)cc1 (racemic) [Example 159, (+/−)-N-[trans-1-(2-Hydroxy-2-phenyl-cyclohexyl)-piperidin-4-yl]-4-methoxy-N-phenyl-benzenesulfonamide]",0.068,–
"O=S(=O)(c1ccc(Cl)c(Cl)c1)N(c1ccccc1)C1CCN([C@@H]2CCCC[C@@H]2c2ccccc2)CC1 (racemic) [Example 1, (+/−)-3,4-Dichloro-N-phenyl-N-[cis-1-(2-phenyl-cyclohexyl)-piperidin-4-yl]-benzenesulfonamide]",0.048,–
"COc1ccc(S(=O)(=O)N(c2ccccc2)C2CCN([C@@H]3CCCC[C@@]3(O)c3ccncc3)CC2)cc1 (racemic) [Example 109, (+/−)-N-[cis-1-(2-Hydroxy-2-pyridin-4-yl-cyclohexyl)-piperidin-4-yl]-4-methoxy-N-phenyl-benzenesulfonamide]",0.073,–
"COc1ccc(S(=O)(=O)N(c2ccccc2)C2CCN([C@@H]3CCCC[C@@]3(O)c3ccccc3)CC2)cc1 (racemic) [Example 99, (+/−)-N-[cis-1-(2-Hydroxy-2-phenyl-cyclohexyl)-piperidin-4-yl]-4-methoxy-N-phenyl-benzenesulfonamide]",0.028,–
"Cc1ccc(S(=O)(=O)N(c2ccc(F)cc2)C2CCN([C@@H]3CCCC[C@@H]3c3ccccc3)CC2)cc1 (racemic) [Example 67, (+/−)-N-(4-Fluoro-phenyl)-4-methyl-N-[cis-1-(2-phenyl-cyclohexyl)-piperidin-4-yl]-benzenesulfonamide]",0.099,–
"COc1ccc(S(=O)(=O)N(c2cccc(OC)c2)C2CCN([C@@H]3CCCC[C@@H]3c3ccccc3)CC2)cc1 (racemic) [Example 3, (+/−)-4-Methoxy-N-(3-methoxy-phenyl)-N-[cis-1-(2-phenyl-cyclohexyl)-piperidin-4-yl]-benzenesulfonamide]",0.094,–
"COc1ccc(S(=O)(=O)N(c2ccccc2)C2CCN([C@@H]3CCCC[C@@]3(O)c3cccnc3)CC2)cc1 (racemic) [Example 110, (+/−)-N-[cis-1-(2-Hydroxy-2-pyridin-3-yl-cyclohexyl)-piperidin-4-yl]-4-methoxy-N-phenyl-benzenesulfonamide]",0.076,–
"COc1ccc(S(=O)(=O)N(c2ccccc2)C2CCN([C@@H]3CCCC[C@@]3(O)c3ccccc3)CC2)cc1 [Example 100, (+)-N-[cis-1-(2-Hydroxy-2-phenyl-cyclohexyl)-piperidin-4-yl]-4-methoxy-N-phenyl-benzenesulfonamide]",0.015,–
(+)-4-Methoxy-N-phenyl-N-[cis-1-(2-phenyl-cyclohexyl)-piperidin-4-yl]-benzenesulfonamide [Example 96],–,0.049
"COc1ccc(S(=O)(=O)N(c2cccc(C(F)(F)F)c2)C2CCN([C@@H]3CCCC[C@@H]3c3ccccc3)CC2)cc1 (racemic) [Example 75, (+/−)-4-Methoxy-N-[cis-1-(2-phenyl-cyclohexyl)-piperidin-4-yl]-N-(3-trifluoromethyl-phenyl)-benzenesulfonamide]",0.068,–
"COc1ccc(S(=O)(=O)N(c2cccc(C(F)(F)F)c2)C2CCN([C@@H]3CCCC[C@@]3(O)c3cccnc3)CC2)cc1 (racemic) [Example 121, (+/−)-N-[cis-1-(2-Hydroxy-2-pyridin-3-yl-cyclohexyl)-piperidin-4-yl]-4-methoxy-N-(3-trifluoromethyl-phenyl)-benzenesulfonamide]",0.071,–
"COc1ccc(S(=O)(=O)N(c2ccccc2)C2CCN([C@@H]3CCCC[C@@]3(O)c3ccc(F)cc3)CC2)cc1 (racemic) [Example 108, (+/−)-N-{cis-1-[2-(4-Fluoro-phenyl)-2-hydroxy-cyclohexyl]-piperidin-4-yl}-4-methoxy-N-phenyl-benzenesulfonamide]",0.04,–
"COc1ccc(S(=O)(=O)N(c2ccccc2)C2CCN([C@@H]3CCCC[C@@]3(O)c3ccc(Cl)cc3)CC2)cc1 (racemic) [Example 107, (+/−)-N-{cis-1-[2-(4-Chloro-phenyl)-2-hydroxy-cyclohexyl]-piperidin-4-yl}-4-methoxy-N-phenyl-benzenesulfonamide]",0.083,–
"COc1ccc(S(=O)(=O)N(c2ccc(F)cc2)C2CCN([C@@H]3CCCC[C@@]3(O)c3ccncc3)CC2)cc1 (racemic) [Example 115, (+/−)-N-(4-Fluoro-phenyl)-N-[cis-1-(2-hydroxy-2-pyridin-4-yl-cyclohexyl)-piperidin-4-yl]-4-methoxy-benzenesulfonamide]",0.071,–
"COc1ccc(S(=O)(=O)N(c2ccccc2)C2CCN([C@@H]3CCCC[C@@]3(O)c3ccccc3C)CC2)cc1 (racemic) [Example 111, (+/−)-N-[cis-1-(2-Hydroxy-2-o-tolyl-cyclohexyl)-piperidin-4-yl]-4-methoxy-N-phenyl-benzenesulfonamide]",0.068,–
"COc1ccc(S(=O)(=O)N(c2ccc(F)cc2)C2CCN([C@@H]3COCC[C@@]3(O)c3ccccc3)CC2)cc1 (racemic) [Example 163, (+/−)-N-(4-Fluoro-phenyl)-N-[cis-1-(4-hydroxy-4-phenyl-tetrahydro-pyran-3-yl)-piperidin-4-yl]-4-methoxy-benzenesulfonamide]",0.085,–
"COc1ccc(S(=O)(=O)N(c2cccc(C(F)(F)F)c2)C2CCN([C@@H]3CCCC[C@@]3(O)c3ccncc3)CC2)cc1 (racemic) [Example 120, (+/−)-N-[cis-1-(2-Hydroxy-2-pyridin-4-yl-cyclohexyl)-piperidin-4-yl]-4-methoxy-N-(3-trifluoromethyl-phenyl)-benzenesulfonamide]",0.091,–
"COc1ccc(S(=O)(=O)N(c2ccc(F)cc2)C2CCN([C@@H]3CCCC[C@@H]3c3ccccc3)CC2)cc1 (racemic) [Example 69, (+/−)-N-(4-Fluoro-phenyl)-4-methoxy-N-[cis-1-(2-phenyl-cyclohexyl)-piperidin-4-yl]-benzenesulfonamide]",0.029,–
